In PubChem BioAssay AID1259408 (Genetic Toxicology Data Bank (GENE-TOX), 2018):
Active and inactive are the calls of the source. How the calls were made is not given here.

Tested on: GENE-TOX genotoxicity assays, various organisms and cells
Test: GENE-TOX mutagenicity studies
Conditions: for call: Assay Type: In vivo carcinogenicity studies
[1] = Species/Cell Type: Drosophila melanogaster, Assay Type: Sex-linked recessive lethal gene mutation, Assay Code: SRLT, Evaluation Type: Evaluation A (Pre-1980)
[2] = Species/Cell Type: Human lymphocytes, Assay Type: Sister-chromatid exchange (SCE) in vitro, Assay Code: SCL+, Evaluation Type: Evaluation B (Post-1980)
[3] = Species/Cell Type: Human lymphocytes, Assay Type: Sister-chromatid exchange (SCE) in vitro, Assay Code: SCLT, Evaluation Type: Evaluation B (Post-1980)
[4] = Species/Cell Type: Human, Assay Type: Sister-chromatid exchange (SCE) in vitro, Assay Code: SC1+, Evaluation Type: Evaluation B (Post-1980)
[5] = Species/Cell Type: Human, Assay Type: Sister-chromatid exchange (SCE) in vitro, Assay Code: SC1T, Evaluation Type: Evaluation B (Post-1980)
[6] = Species/Cell Type: Mammalian polychromatic erythrocytes, Assay Type: Micronucleus test, chromosome aberrations, Assay Code: MNT+, Evaluation Type: Evaluation B (Post-1980)
[7] = Species/Cell Type: Saccharomyces cerevisiae, Assay Type: Mitotic recombination or gene conversion, Assay Code: YEC-, Evaluation Type: Evaluation A (Pre-1980)
[8] = Species/Cell Type: Salmonella typhimurium (one or more of the five standard strains: TA98, TA100, TA1535, TA1537, and TA1538), Assay Type: Histidine reverse gene mutation, Ames assay, Assay Code: SALT, Evaluation Type: Evaluation A (Pre-1980)
[9] = Species/Cell Type: Allium cepa, Assay Type: Chromosome aberrations, Assay Code: ALC-, Evaluation Type: Evaluation A (Pre-1980)
[10] = Species/Cell Type: Salmonella typhimurium (one or more of the five standard strains: TA98, TA100, TA1535, TA1537, and TA1538), Assay Type: Histidine reverse gene mutation, Ames assay, Assay Code: SAL+, Evaluation Type: Evaluation A (Pre-1980)
[11] = Species/Cell Type: Nonhuman, Assay Type: Sister-chromatid exchange (SCE) in vitro, Assay Code: SC2+, Evaluation Type: Evaluation B (Post-1980)

In the case of `F`, the mutagenic call (Species/Cell Type: Allium cepa, Assay Type: Chromosome aberrations, Assay Code: ALC+D, Dose Response: With dose response, Evaluation Type: Evaluation A (Pre-1980)) is reported as “active; positive”, the mutagenic call (Species/Cell Type: Drosophila melanogaster, Assay Type: Aneuploidy, partial sex chromosome loss, chromosome aberrations, Assay Code: DAPT, Evaluation Type: Evaluation A (Pre-1980)) is reported as “no conclusion” and the mutagenic call (Species/Cell Type: Drosophila melanogaster, Assay Type: Aneuploidy, sex chromosome gain, chromosome aberrations, Assay Code: DAG-F, Evaluation Type: Evaluation A (Pre-1980)) is reported as “inactive; negative”. The mutagenic call (Species/Cell Type: Drosophila melanogaster, Assay Type: Aneuploidy, whole sex chromosome loss, chromosome aberrations, Assay Code: DAC+M, Evaluation Type: Evaluation A (Pre-1980)) was “active; positive”, the mutagenic call (Species/Cell Type: Drosophila melanogaster, Assay Type: Sex-linked recessive lethal gene mutation, Assay Code: SRL+, Evaluation Type: Evaluation A (Pre-1980)) was “active; positive” and the mutagenic call [1] was “no conclusion”. The mutagenic call [2] was “active; positive”, the mutagenic call [3] was “no conclusion” and the mutagenic call [4] was “active; positive”. For the same molecule, the mutagenic call [5] was “no conclusion”, the mutagenic call [6] was “active; positive” and the mutagenic call (Species/Cell Type: Neurospora crassa, Assay Type: Aneuploidy, chromosome aberrations, Assay Code: NEN-, Evaluation Type: Evaluation A (Pre-1980)) was “inactive; negative”. For the same molecule, the mutagenic call (Species/Cell Type: Nonhuman lymphocytes or leukocytes, Assay Type: Chromosome aberrations in vivo, Assay Code: CY%-, Evaluation Type: Evaluation A (Pre-1980)) was “inactive; negative”, the mutagenic call (Species/Cell Type: Nonhuman, Assay Type: Sister-chromatid exchange (SCE) in vivo, Assay Code: SC3-, Evaluation Type: Evaluation A (Pre-1980)) was “inactive; negative” and the mutagenic call (Species/Cell Type: Nonhuman, Assay Type: Sister-chromatid exchange (SCE) in vivo, Assay Code: SC3T, Evaluation Type: Evaluation B (Post-1980)) was “no conclusion”. The mutagenic call [7] was “inactive; negative” and the mutagenic call [8] was “no conclusion”.
For `O=C1C(=O)c2ccccc2-c2ccccc21`, the mutagenic call [9] was “inactive; negative”.
With `CCOP(=S)(OCC)SC1OCCOC1SP(=S)(OCC)OCC` (stereo unspecified) the call (Species/Cell Type: Nonhuman, Assay Code: CCG-, Evaluation Type: Evaluation A (Pre-1980)) was “inactive; negative”.
With `Cc1ccc2cc3c4c(ccc3c3c2c1CC3)C=C[C@H](O)[C@H]4O` the mutagenic call (Species/Cell Type: Chinese hamster lung (V79) cells, Assay Type: Forward gene mutation at the HPRT or ouabain locus, Assay Code: V79+, Evaluation Type: Evaluation A (Pre-1980)) was “active; positive”, the call (Species/Cell Type: Nonhuman, Assay Code: CCGT, Evaluation Type: Evaluation A (Pre-1980)) was “no conclusion” and the mutagenic call (Species/Cell Type: Salmonella typhimurium (one or more of the five standard strains: TA98, TA100, TA1535, TA1537, and TA1538), Assay Type: Histidine reverse gene mutation, Ames assay, Assay Code: SAL+*, Activation: With metabolic activation, Evaluation Type: Evaluation A (Pre-1980)) was “active; positive”.
For `CCCCCCCC/C=C/CCCCCCCC(=O)OCCOCC(OCCO)C1OCC(OCCO)C1OCCO` (stereo unspecified), the mutagenic call [3] was “no conclusion” and the mutagenic call [5] was “no conclusion”.
In the case of `CC(=O)Nc1ccccc1`, the mutagenic call [5] is reported as “no conclusion”, the mutagenic call [8] is reported as “no conclusion” and the mutagenic call (Species/Cell Type: Salmonella typhimurium, Assay Type: Forward and reverse gene mutation, host-mediated assay, Assay Code: HMA-, Evaluation Type: Evaluation A (Pre-1980)) is reported as “inactive; negative”.
`F/C(=C(/F)C(F)(F)F)C(F)(F)F` was tested, and the mutagenic call [1] was “no conclusion”.
`CC(C)(OO)c1ccccc1` was tested, and the mutagenic call [7] was “inactive; negative”.
In the case of `Cc1cc2ccccc2c2cc(F)c3ccccc3c12`, the mutagenic call [8] is reported as “no conclusion”.
For `O=[N+]([O-])c1ccc(-c2nc(N3CCOCC3)c3ccccc3n2)s1`, the mutagenic call [10] was “active; positive”.
`NS(=O)(=O)c1cc2c(cc1Cl)NC=NS2(=O)=O` was tested, and the mutagenic call [8] was “no conclusion”.
With `COc1cc([C@@H]2c3cc4c(cc3[C@@H](O[C@@H]3O[C@@H]5CO[C@@H](c6cccs6)O[C@H]5[C@H](O)[C@H]3O)[C@H]3COC(=O)[C@H]23)OCO4)cc(OC)c1O` the mutagenic call (Species/Cell Type: Chinese hamster ovary (CHO) cells, Assay Type: Forward gene mutation at the HPRT locus, Assay Code: CHO+, Evaluation Type: Evaluation B (Post-1980)) was “active; positive” and the mutagenic call [11] was “active; positive”.
In the case of `Cc1cc(O)c2c(c1O)C(=O)C13C(=C2O)C(=O)C2C(O)C1C1C(O)C3C(=O)C3=C(O)c4c(O)cc(C)c(O)c4C(=O)C321` (stereo unspecified), the mutagenic call (Species/Cell Type: Bacillus subtilis (H17 vs M45), Assay Type: Rec-assay, spot test, DNA effects (bacterial DNA repair), Assay Code: REW+, Evaluation Type: Evaluation A (Pre-1980)) is reported as “active; positive”, the mutagenic call (Species/Cell Type: Human lymphocytes or leukocytes, Assay Type: Chromosome aberrations in vitro, Assay Code: CY7+, Evaluation Type: Evaluation A (Pre-1980)) is reported as “active; positive” and the call (Species/Cell Type: Nonhuman, Assay Code: CCG+L, Evaluation Type: Evaluation A (Pre-1980)) is reported as “active; positive”.
`CCCCc1cc2c(c3ccc4ccccc4c13)CCC2=O` was tested, and the mutagenic call [8] was “no conclusion”.
For `O[C@@H]1[C@@H]2O[C@@H]2c2ccccc2[C@H]1O`, the mutagenic call (Species/Cell Type: Escherichia coli polA (W3119 vs P3478), Assay Type: Rec-assay, DNA effects (bacterial DNA repair), Assay Code: RE1+, Evaluation Type: Evaluation A (Pre-1980)) was “active; positive”.
For `CC(C)(C)N(CCCCO)N=O`, the mutagenic call [8] was “no conclusion”.
`Nc1c(O)c(S(=O)(=O)O)cc2cc(S(=O)(=O)O)ccc12` was tested, and the mutagenic call (Species/Cell Type: Rodents, Sex: Male, Assay Type: Dominant lethal test, Assay Code: DLT-, Evaluation Type: Evaluation A (Pre-1980)) was “inactive; negative”.
In the case of `NC(=O)N/N=C/c1ccco1`, the mutagenic call (Species/Cell Type: Escherichia coli WP2 UVRA, Assay Type: Tryptophan reverse gene mutation, Assay Code: WPU-, Evaluation Type: Evaluation A (Pre-1980)) is reported as “inactive; negative”.
With `CCCCOc1ccc(CC(=O)NOS(=O)(=O)O)cc1` the mutagenic call [11] was “active; positive”.
For `Cc1ccc(O)c(C)c1`, the mutagenic call [3] was “no conclusion”.
`Cc1ccc(C2CO2)cc1` (stereo unspecified) was tested, and the mutagenic call (Species/Cell Type: Escherichia coli WP2 UVRA, Assay Type: Tryptophan reverse gene mutation, Assay Code: WPU+D, Dose Response: With dose response, Evaluation Type: Evaluation A (Pre-1980)) was “active; positive”, the mutagenic call [2] was “active; positive” and the mutagenic call [4] was “active; positive”. The mutagenic call [10] was “active; positive”.
With `CCOP(=S)(NC(C)C)Oc1ccccc1C(=O)OC(C)C` (stereo unspecified) the mutagenic call (Species/Cell Type: Nonhuman, Assay Type: Sister-chromatid exchange (SCE) in vitro, Assay Code: SC2-, Evaluation Type: Evaluation B (Post-1980)) was “inactive; negative”.
`CC(C)N1C(=O)c2ccccc2NS1(=O)=O` was tested, and the mutagenic call [7] was “inactive; negative”.
For `CNC=O`, the mutagenic call (Species/Cell Type: Escherichia coli WP2, Assay Type: Tryptophan reverse gene mutation, Assay Code: WP2-, Evaluation Type: Evaluation A (Pre-1980)) was “inactive; negative”.
In the case of `Nc1nc(-c2ccc([N+](=O)[O-])s2)cs1`, the mutagenic call [10] is reported as “active; positive”.
For `CS(=O)(=O)OCCNC[C@@H](O)[C@@H](O)CNCCOS(C)(=O)=O`, the mutagenic call (Species/Cell Type: Human lymphocytes, Assay Type: Sister-chromatid exchange (SCE) in vitro, Assay Code: SCL+D, Dose Response: With dose response, Evaluation Type: Evaluation A (Pre-1980)) was “active; positive” and the mutagenic call (Species/Cell Type: Human, Assay Type: Sister-chromatid exchange (SCE) in vitro, Assay Code: SC1+D, Dose Response: With dose response, Evaluation Type: Evaluation A (Pre-1980)) was “active; positive”.
For `CC1CS(=O)(=O)CCN1/N=C/c1ccc([N+](=O)[O-])o1` (stereo unspecified), the mutagenic call [6] was “active; positive”.
With `Cn1cccc1CO` the mutagenic call (Species/Cell Type: Human lymphocytes, Assay Type: Sister-chromatid exchange (SCE) in vitro, Assay Code: SCL+D, Dose Response: With dose response, Evaluation Type: Evaluation B (Post-1980)) was “active; positive” and the mutagenic call (Species/Cell Type: Human, Assay Type: Sister-chromatid exchange (SCE) in vitro, Assay Code: SC1+D, Dose Response: With dose response, Evaluation Type: Evaluation B (Post-1980)) was “active; positive”.
With `O=C=Nc1ccc(Nc2ccc([N+](=O)[O-])cc2)cc1` the mutagenic call [8] was “no conclusion”.
In the case of `Nc1ccc(O)c(N)c1`, the mutagenic call [9] is reported as “inactive; negative”.
`CCc1ccc(O)cc1` was tested, and the mutagenic call [3] was “no conclusion” and the mutagenic call [5] was “no conclusion”.
For `CC(C)=O`, the mutagenic call (Species/Cell Type: Arabidopsis species, Assay Type: Gene mutation, Assay Code: ARM-, Evaluation Type: Evaluation A (Pre-1980)) was “inactive; negative”, the mutagenic call (Species/Cell Type: Fischer rat embryo (RLV/1706) cells, Assay Type: Cell transformation, viral enhanced, Assay Code: CTR-, Evaluation Type: Evaluation A (Pre-1980)) was “inactive; negative” and the mutagenic call [5] was “no conclusion”. For the same molecule, the mutagenic call (Species/Cell Type: Mammalian polychromatic erythrocytes, Assay Type: Micronucleus test, chromosome aberrations, Assay Code: MNT-, Evaluation Type: Evaluation B (Post-1980)) was “inactive; negative”, the mutagenic call (Species/Cell Type: Mouse embryo (AKR/ME) cells, Assay Type: Cell transformation, Assay Code: CTK-, Evaluation Type: Evaluation A (Pre-1980)) was “inactive; negative” and the mutagenic call (Species/Cell Type: Nonhuman, Assay Type: Chromosome aberrations in vitro, Assay Code: CY&-, Evaluation Type: Evaluation A (Pre-1980)) was “inactive; negative”. For the same molecule, the mutagenic call (Species/Cell Type: Nonhuman, Assay Type: Sister-chromatid exchange (SCE) in vitro, Assay Code: SC2-, Evaluation Type: Evaluation A (Pre-1980)) was “inactive; negative”, the mutagenic call (Species/Cell Type: Salmonella typhimurium (one or more of the five standard strains: TA98, TA100, TA1535, TA1537, and TA1538), Assay Type: Histidine reverse gene mutation, Ames assay, Assay Code: SAL-, Evaluation Type: Evaluation A (Pre-1980)) was “inactive; negative” and the mutagenic call (Species/Cell Type: Syrian hamster embryo (SHE) cells, Assay Type: Cell transformation, clonal assay, Assay Code: CTC-, Evaluation Type: Evaluation A (Pre-1980)) was “inactive; negative”.
`Cc1cc2c(ccc3ccccc32)c2c1C(=O)CC2` was tested, and the mutagenic call [8] was “no conclusion”.
